Laboratory results reported in patent publication US7001770B1, “Calpain inhibitors and their applications” (priority 1998, dated 2006).
Square brackets hold non-standard residues; d marks the D form. Peptide text beside a SMILES is read from it. Nle = CCCC[C@H](N)C(=O)O

Experiments:
SK-Hep1 cells = assay: G0/G1 cell cycle arrest by BrdU labeling, flow cytometry; format: cell-based; settings: 5 μM CI-1 for 17 hours, 2 hour pulse; DMF control 34%
Description: (§1) In order to determine any increases in p53 function in response to calpain inhibitor 1, the quantity of cells undergoing G0/G1 cell cycle arrest in response to CI-1 administration, was assayed by bromodeoxyuridine labeling of cells. Each of the cell lines described in Example 2 above were exposed to a concentration of 0 or 5 μM CI-1 (in DMF) as described in Example 3 above. Cell lines treated with DMF alone or 5 μM final concentration of calpain inhibitor 1 for 17 hours were pulse labeled with a final concentration of 10 μM bromodeoxyuridine (Boehringer Mannheim) for two hours. Cells were harvested for bivariate BrdU/DNA flow cytometric analysis by fixation in 70% ethanol, followed digestion with 0.08% pepsin for 30 minutes at 37 degrees. Cells were centrifuged at 1500 RPM, and 2N HCL was added. Cells were incubated at 37 degrees for 20 minutes, followed by addition of 1M sodium borate. Cells were washed in IFA/tween 20 (0.01 M HEPES, 0.005% sodium azide, 0.5% tween 20, 5% FBS, […]), and anti-BrdU antibody, diluted 1:10 in IFA without tween 20, was added for 30 minutes. Cells were washed in IFA/tween 20, and incubated in IFA/tween 20/RNase for 15 minutes at 37 degrees.
(§2) Cells that had incorporated BrdU were stained using a FITC conjugated monoclonal antibody to BrdU (commercially available from Becton-Dickinson) and detected by FACS analysis on a FACScan FACS machine (commercially available from Becton Dickinson).

HLF cells = assay: as above; format: cell-based; settings: 5 μM CI-1 for 17 hours, 2 hour pulse; DMF control 42%
Description: as §1, §2

DLD1 cells = assay: as above; format: cell-based; settings: 5 μM CI-1 for 17 hours, 2 hour pulse; 35% without calpain treatment
Description: as §1, §2

RKO cells = assay: as above; format: cell-based; settings: 5 μM CI-1 for 17 hours, 2 hour pulse; DMF control 47%
Description: as §1, §2

Hep3B cells = assay: Apoptosis by annexin V-FITC staining, flow cytometry; format: cell-based; settings: for Percent Annexin V Positive Staining: 26 hours post treatment
Description: (§3) The effect of an inhibitor of μ-calpains, CI-1 (N-acetyl-leu-leu-norleucinal), was investigated for its ability to enhance p53 mediated apoptosis in tumor cell lines having p53+ and p53− status listed in Table1. Each cell line was treated with 5–50 μM CI-1 for 17–26 hours. To detect a G0/G1 block, bromodeoxyuridine (BrdU) incorporation followed by flow cytometric analysis was done 17 hours post-treatment as described in Example 4 herein. […] The results of these experiments are presented in FIGS. 1 and 2 of the attached drawings. In FIG. 1, each point on the graph represents percentage annexin V positive after background percentage (DMF alone) was subtracted.
(§4) CI-1 was obtained from Boehringer-Mannheim Biochemicals (Indianapolis, Ind.). The CI-1 containing media was prepared as follows. CI-1 was diluted in dimethylformamide (DMF) to a concentration of 33.3 μM/μl. The CI-1 solution in DMF was added to achieve a final concentration in the media of 5 or 10 μM final concentration of CI-1. An equivalent volume of DMF alone was added to the control cells. Calpain inhibitor 2, N-acetyl-leu—leu-methioninal (Boehringer Mannheim) was added to cell lines at 5–50 μM final concentration with or without rAd-p53 for 26 hours.
(§5) At a time of 17 (or 26 hours) post infection, the percentage of cells undergoing apoptosis was determined by convential apoptotic markers. Apoptosis was monitored visually by observing blebbed nuclei characteristic of apoptosis, by propidium iodide staining (using propidium iodide commercially available from Molecular Probes, Inc.) followed by flow cytometric analysis to look for subgenomic populations of cells, and by labeling cells with annexin V-FITC (commercially available from Boehringer Mannheim) in substantial accordance with the instructions provided by the manufacturer, followed by flow cytometric analysis on a FACScan Flow Cytometer (commercially available from Becton Dickinson).

A549 cells = assay: as above; format: cell-based; settings: 26 hours post treatment
Description: as §3, §4, §5

NCI-H596 cells = assay: as above; format: cell-based; settings: CI-1 treatment; p53 mutated lung cell line
Description: as §3, §4, §5

[1] = system: JC (mouse mammary carcinoma, p53 mutant) cells; assay: Rodent cancer model, flank tumors; format: in vivo, mice; settings: calpain inhibitor alone, 60 mg/kg intraperitoneal
Description: The in vitro results presented above were confirmed in a rodent cancer model. Briefly, healthy immune competent mice were injected with JC (mouse mammary carcinoma, p53 mutant) cells and tumors were permitted to form. This is a particularly rigorous model as JC cells are particularly difficult to infect and the mouse is an immunocompetent mouse capable of producing an immune response to the human adenovirus and/or the human p53 transgene. After 2 weeks, flank tumors were present in all animals. Calpain inhibitor was administered via intraperitoneal injection to a concentration of approximately 60 mg/kg approximately 24 hours prior to administration of the recombinant rAd-p53 virus. Appropriate control viruses and solutions were employed. The mice were injected with 1×10^10 particles of rAd-p53 per injection intratumorally in combination with intraperitoneally injected CI-1 at a concentration of 60 mg/kg for a period of 5 days, 2 days off and then for 5 more days. Tumor growth/regression was evaluated at Day 4, Day 8 and Day 11 post-treatment (FIGS. 12 A,B and C respectively). In all instances the rate of decrease in tumor growth was at least 40% reduction in fold increase in tumor volume in mice treated with calpain inhibitor 1 in addition to FTCB, in comparison with the mice treated with the FTCB vector alone.

SMILES: CCCC[C@@H](C=O)NC(=O)[C@H](CC(C)C)NC(=O)[C@H](CC(C)C)NC(C)=O [CI-1, N-acetyl-leu-leu-norleucinal] (Ac-Leu-Leu-[Nle]-aldehyde)
- cells incorporating BrdU label (SK-Hep1 cells): 8%
- cells incorporating BrdU label (HLF cells): 35%
- cells incorporating BrdU (DLD1 cells): about 25%
- cells incorporating BrdU label (RKO cells): 16%
- Percent Annexin V Positive Staining (Hep3B cells; CI-1 20 μM): 36%
- Percent Annexin V Positive Staining (Hep3B cells; CI-1 50 μM): 32%
- increase in the percentage of apoptotic cells (Hep3B cells; highest concentration of inhibitor (50 μM), p53 null): no increase
- Percent Annexin V Positive Staining (A549 cells; CI-1 10 μM): 6%
- Percent Annexin V Positive Staining (A549 cells; CI-1 20 μM): 5%
- Percent Annexin V Positive Staining (A549 cells; CI-1 50 μM): 18%
- increase in the percent of cells annexin V positive in response to treatment (NCI-H596 cells): no increase
- antitumor effects [1]: significant antitumor effects
